{"source": "patent US20160002665A1", "about": "“[…] MALE STERILITY IN COMPOSITAE” (priority 2013, published 2016)", "key": {"[1]": {"test_system": "mutant lettuce plant (Lactuca sativa), having a mutated version of the OPR3 gene", "test": "Reversal of male sterility by spraying young flower buds of homozygous OPR3 mutant lettuce", "type": "in vivo", "details": "for restoration of male fertility in F2 generation: F2 of cross NCIMB 42060 x wild-type lettuce, treatment as described in Example 1; for seed production through selfing: inflorescences sprayed with 200 μM solution, compared with mock-treated control plants (FIG. 1)", "source_text": "A mutant lettuce plant (Lactuca sativa), having a mutated version of the OPR3 gene, was obtained by means of chemical mutagenesis and subsequent TILLING screening of about 3,000 M2 plants.\nPhenotypically this mutant lettuce plant was indistinguishable from wild-type lettuce plants, when the mutation was present in a heterozygous state. […] The few pollen grains that developed in such homozygous mutants were not functional.\nFrom the early bolting stage the inflorescences were sprayed 5 times per week, for a total of 3 weeks."}, "[2]": {"test_system": "mutant endive plant (Cichorium endivia), having a mutated version of the OPR3 gene", "test": "Reversal of male sterility and pale flower color by treating young flower buds of homozygous OPR3 mutant endive", "type": "in vivo", "details": "for restoration of male fertility in F2 generation: F2 of cross of endive of the invention x wild-type endive, treatment as described in Example 3; for overcoming male sterility caused by the opr3 mutation: homozygous mutant endive, application to flower buds; for flower color of flowers developed from treated flower buds / male fertility (pollen function and seed set through self-pollination): homozygous mutants, daily spraying with 200 μM (0.2 mM) aqueous solution with 0.025% Zipper surfactant; for flower color of flowers developed from treated flower buds: about 3.5 months, untreated or mock-treated flowers pale (FIG. 2); for male fertility (pollen function and seed set through self-pollination): controls remained male-sterile", "source_text": "A mutant endive plant (Cichorium endivia), having a mutated version of the OPR3 gene, was obtained by means of chemical mutagenesis and subsequent TILLING screening of about 10,000 M2 plants.\nPhenotypically this mutant endive plant was indistinguishable from wild-type endive plants, when the mutation was present in a heterozygous state. […] The pollen grains that developed in such homozygous mutants were unable to germinate and therefore dysfunctional.\nBlue was the wild-type flower color in this endive background."}, "[3]": {"test_system": "Arabidopsis thaliana with mutations in the OPR3 gene", "details": "treating flower buds; cited from earlier work"}}}
{"compound": "CC/C=C\\C[C@H]1C(=O)CC[C@@H]1CC(=O)O", "note": "[jasmonic acid, (3R,7S)-jasmonic acid]", "values": [{"measurement": "restoration of male fertility in F2 generation", "setting": "[1]", "value": "sufficient to restore male fertility"}, {"measurement": "restoration of male fertility in F2 generation", "setting": "[2]", "value": "sufficient to restore male fertility"}, {"measurement": "overcoming male sterility caused by the opr3 mutation", "setting": "[2]", "value": "had the same effect"}]}
{"compound": "CC/C=C\\CC1C(=O)CCC1CC(=O)OC", "note": "(stereo not drawn) [methyl jasmonate]", "values": [{"measurement": "restoration of male fertility in F2 generation", "setting": "[1]", "value": "sufficient to restore male fertility"}, {"measurement": "seed production through selfing", "setting": "[1]; homozygous mutants", "value": "has produced seeds through selfing"}, {"measurement": "seed production through selfing", "setting": "[1]; homozygous mutants, listed as MeJA", "value": "produced seeds in a subset of their flowers"}, {"measurement": "restoration of male fertility", "setting": "[1]; homozygous mutants, young flower buds sprayed with 200 μM (0.2 mM) aqueous solution plus 0.025% Zipper surfactant, 5 times per week for 3 weeks", "value": "sufficient to restore male fertility"}, {"measurement": "restoration of male fertility in F2 generation", "setting": "[2]", "value": "sufficient to restore male fertility"}, {"measurement": "overcoming male sterility caused by the opr3 mutation", "setting": "[2]", "value": "could be overcome"}, {"measurement": "flower color of flowers developed from treated flower buds", "setting": "[2]", "value": "changed to blue"}, {"measurement": "flower color of flowers developed from treated flower buds", "setting": "[2]; listed as MeJA", "value": "developed into blue flowers"}, {"measurement": "male fertility (pollen function and seed set through self-pollination)", "setting": "[2]", "value": "has become male-fertile"}, {"measurement": "male fertility (pollen function and seed set through self-pollination)", "setting": "[2]; listed as MeJA", "value": "produced viable, functional pollen and were able to set seed through self-pollination"}, {"measurement": "effect of other application methods than spraying", "setting": "[2]; solution painted onto the surface of young flower buds with a fine brush", "value": "comparable effects"}, {"measurement": "restoration of male fertility", "setting": "[3]", "value": "Male fertility could be restored"}]}
